Like-named read-outs stand apart in the source and are kept apart here.
Tested on: TGFβ signal
Test: TGFβ signal inhibitory activity, (SBE)4-Luc reporter in A549 cells (Test Examples 1A and 1B)
Type: cell-based, human
Conditions: Homo sapiens, A549, read-out: TGFβ inhibition rate, %
In short: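 Stable A549 line carrying (SBE)4-Luc Smad3-binding reporter treated with compound plus TGFβ-1 (2 ng/ml) for 4 hr; luciferase read by chemiluminescence. Percent inhibition relative to TGFβ-only and untreated cells, tested at 3 µM and 10 µM, some also at 1 µM.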

[1] = test compound 3 µM, Reference Examples, Table 1B
[2] = test compound 10 µM, Reference Examples, Table 1B
[3] = 3 µM, compounds of Reference Examples (Test Example 1B)
[4] = 10 µM, compounds of Reference Examples (Test Example 1B)
[5] = test compound 3 µM, TGFβ-1 2 ng/ml, 4 hr, Table 1A
[6] = test compound 10 µM, TGFβ-1 2 ng/ml, 4 hr, Table 1A

Row | SMILES | inhibition at 3 µM [1] | inhibition at 10 µM [2] | inhibition at 3 µM [3] | inhibition at 10 µM [4] | further results
1 | CC/C=C\CCOC(=O)c1ccccc1Oc1ccnc2cc(OC)c(OC)cc12 [Compound r100] | 0% | 82% |  |  | 
2 | COc1cc2nccc(Oc3cc4ccccc4nc3-c3ccncc3)c2cc1OC [r289] |  |  | 80% | 99% | 
3 | Cc1cc(Oc2ccnc3ccc(-c4csc5ccccc45)cc23)c(-c2ccccn2)nc1C [Compound 164, 3-(6-Benzo[b]thiophen-3-yl-quinolin-4-yloxy)-5,6-dimethyl-[2,2']bipyridine] |  |  |  |  | inhibition at 3 µM [5]: 75%; inhibition at 10 µM [6]: 100%
4 | COc1cc2nccc(Oc3ccc4ccccc4c3C=O)c2cc1OC [Compound r27] | 0% | 93% |  |  | 
5 | COc1cc2nccc(Oc3ccc4ncccc4c3Cl)c2cc1OC [r298] |  |  | 30% | 75% | 
6 | COc1cc2nccc(Oc3ccc(C)cc3-c3cccnc3)c2cc1OC [r168] |  |  | 22% | 74% | 
7 | Cc1cc(Oc2ccnc3cc(-c4ccccc4)sc23)c(-c2ccccn2)nc1C [Compound 29, 5,6-Dimethyl-3-(2-phenyl-thieno[3,2-b]pyridin-7-yloxy)-[2,2']bipyridine] |  |  |  |  | inhibition at 1 µM (test compound 1 µM, TGFβ-1 2 ng/ml, 4 hr, Table 1A): 89%; inhibition at 3 µM [5]: 100%
8 | COc1cc2nccc(Oc3cnc4ncccc4c3)c2cc1OC [Compound r427] |  |  | 44% | 80% | 
9 | CCCCCCCCOc1ccc(C(=O)c2ccccc2)c(Oc2ccnc3cc(OC)c(OC)cc23)c1 [Compound r66] | 22% | 86% |  |  | 
10 | COc1cc2c(Oc3cc4ccccc4nc3C)ccnc2cc1-c1ccncc1 [r414] |  |  | 82% | 100% | 
11 | CCC(=O)c1cc(OC(F)(F)F)ccc1Oc1ccnc2cc(OC)c(OC)cc12 [Compound r51] | 71% | 99% |  |  | 
12 | Cc1ccc(-c2nc(C)c(C)cc2Oc2ncnc3ccccc23)nc1 [Compound 38, 4-(5,6,5'-Trimethyl-[2,2']bipyridin-3-yloxy)-quinazoline] |  |  |  |  | inhibition at 3 µM [5]: 45%; inhibition at 10 µM [6]: 89%
13 | CCOC(=O)c1cc(Cl)ccc1Oc1ccnc2cc(OC)c(OC)cc12 [Compound r84] | 84% | 100% |  |  | 
14 | COc1cc2c(Oc3cc(C)c(C)nc3-c3nc(C)c(C)s3)ccnc2cc1O [Compound r455] |  |  | 76% | 99% | 
15 | COc1cc2nccc(Oc3ccc(C)cc3C(=O)C3CCCC3)c2cc1OC [r58] | 90% | 100% |  |  | 
16 | COc1cc2nccc(Oc3ccc(C)nc3-c3ccccc3O)c2cc1OC [Compound r226] |  |  | 60% | 96% | 
17 | COc1cc2c(Oc3ccc(C)cc3C(=O)c3ccccc3)ccnc2cc1OCC(O)CNCCO (stereo not shown) [Compound r152] | 99% | 100% |  |  | 
18 | COc1cc2c(Oc3cc4ccccc4nc3C)ccnc2cc1OCC(CO)(CO)CBr [Compound r389] |  |  | 100% | 100% | 
19 | COc1cc2nccc(Oc3cc4cccnc4cc3C)c2cc1OC [r296] |  |  | 86% | 100% | 
20 | Cc1cc(Oc2ccnc3ccc(-c4ccc(O)cc4)cc23)c(-c2ccccn2)nc1C [Compound 12, 4-[4-(5,6-Dimethyl-[2,2']bipyridin-3-yloxy)-quinolin-6-yl]-phenol] |  |  |  |  | inhibition at 3 µM [5]: 100%; inhibition at 10 µM [6]: 100%
21 | COc1cc2c(Oc3cc4ccccc4nc3C(C)=O)ccnc2cc1OCCN1CCOCC1 [Compound r391] |  |  | 99% | 100% | 
22 | COc1cc2c(Oc3ccc(C)cc3C(=O)c3ccccc3)ccnc2cc1OCC1CO1 (stereo not shown) [Compound r151] | 95% | 100% |  |  | 
23 | COc1cc2nccc(Oc3c(Br)cc(Br)cc3C(=O)Nc3ccc(Br)cc3)c2cc1OC [Compound r113] | 0% | 96% |  |  | 
24 | COc1cc2nccc(Oc3cc4ccccc4cc3C(=O)Nc3cccc4ccccc34)c2cc1OC [r114] | 0% | 96% |  |  | 
25 | COc1cc2c(Oc3cc4ccccc4nc3C)ccnc2cc1OCCN1C(=O)c2ccccc2C1=O [Compound r367] |  |  | 95% | 98% | 
26 | COc1cc2nccc(Oc3cc(C)c(C)nc3-c3ccccn3)c2cc1OC [Compound r269] |  |  |  |  | inhibition at 1 µM (1 µM, compounds of Reference Examples (Test Example 1B)): 97%
27 | COc1cc2nccc(Oc3ccccc3C(=O)OCC(C)C)c2cc1OC [Compound r97] | 14% | 92% |  |  | 
28 | Cc1cc(Oc2ccnc3cc(-c4cccc(N)c4)ccc23)c(-c2ccccn2)nc1C [Compound 21, 3-[4-(5,6-Dimethyl-[2,2']bipyridin-3-yloxy)-quinolin-7-yl]-phenylamine] |  |  |  |  | inhibition at 3 µM [5]: 99%; inhibition at 10 µM [6]: 100%

Row | SMILES | inhibition at 3 µM [1] | inhibition at 10 µM [2] | inhibition at 3 µM [3] | inhibition at 10 µM [4] | further results
29 | Cc1cc(Oc2ccnc3ccc(-c4ccc[nH]4)cc23)c(-c2ccccn2)nc1C [Compound 168, 5,6-Dimethyl-3-[6-(1H-pyrrol-2-yl)-quinolin-4-yloxy]-[2,2']bipyridine] |  |  |  |  | inhibition at 3 µM [5]: 92%; inhibition at 10 µM [6]: 100%
30 | COc1cc2c(Oc3ccc(C)cc3C(=O)c3ccccc3)ccnc2cc1OCCCCNCCO [r142] | 100% | 100% |  |  | 
31 | Cc1cc(Oc2ccnc3cc(-c4cc5ccccc5o4)ccc23)c(-c2ccccn2)nc1C [Compound 173, 3-(7-Benzofuran-2-yl-quinolin-4-yloxy)-5,6-dimethyl-[2,2']bipyridine] |  |  |  |  | inhibition at 3 µM [5]: 57%; inhibition at 10 µM [6]: 92%
32 | Cc1cc(Oc2ccnc3cc(C(F)(F)F)ccc23)c(-c2ccccn2)nc1C [Compound 15, 5,6-Dimethyl-3-(7-trifluoromethyl-quinolin-4-yloxy)-[2,2']bipyridine] |  |  |  |  | inhibition at 3 µM [5]: 99%; inhibition at 10 µM [6]: 100%
33 | CCCOC(=O)c1cc2ccccc2cc1Oc1ccnc2cc(OCCCN3CCOCC3)c(OC)cc12 [Compound r326] |  |  | 83% | 100% | 
34 | CCc1ccc(Oc2ccnc3cc(OC)c(F)cc23)c(-c2ccccn2)n1 [Compound 162, 6-Ethyl-3-(6-fluoro-7-methoxy-quinolin-4-yloxy)-[2,2']bipyridine] |  |  |  |  | inhibition at 3 µM [5]: 100%; inhibition at 10 µM [6]: 100%
35 | COc1cc2c(Oc3cc4ccccc4nc3C)ccnc2cc1OCCCN1CCOCC1 [Compound r379] |  |  | 100% | 100% | 
36 | COc1cc2c(Oc3ccc(C)cc3C(=O)c3ccccc3)ccnc2cc1OCCCCN1CCC(CO)CC1 [Compound r144] | 99% | 100% |  |  | 
37 | COc1cc2nccc(Oc3cc(C)c(C)nc3-c3ccc(O)nc3)c2cc1OC [Compound r430] |  |  | 19% | 78% | 
38 | Cc1cc(Oc2ccnc3ccc(O)cc23)c(-c2ccccn2)nc1C [Compound 139, 4-(5,6-Dimethyl-[2,2']bipyridinyl-3-yloxy)-quinolin-6-ol] |  |  |  |  | inhibition at 3 µM [5]: 100%; inhibition at 10 µM [6]: 100%
39 | COc1cc2nccc(Oc3ccc(C)c(C)c3)c2cc1OC [r15] | 41% | 84% |  |  | 
40 | COc1cc2c(Oc3cc4ccccc4nc3C)ccnc2cc1OCCN1CCCC(CO)C1 (stereo not shown) [Compound r359] |  |  | 100% | 100% | 
41 | COc1cc2nccc(Oc3cc(C)c(C)cc3/C(C)=N/Oc3ccccc3)c2cc1OC [r199] |  |  | 14% | 59% | 
42 | COc1cc2nccc(Oc3ccc(C)cc3Cl)c2cc1OC [Compound r3] | 0% | 75% |  |  | 
43 | CCOC(=O)c1cc(-n2cccc2)ccc1Oc1ccnc2cc(OC)c(OC)cc12 [Compound r90] | 54% | 95% |  |  | 
44 | COc1cc2c(Oc3cc(C)c(C)nc3-c3cccc(C)n3)ccnc2cc1OCC1CO1 (stereo not shown) [Compound r446] |  |  | 35% | 89% | 
45 | CCCc1ccc(Oc2ccnc3cc(OC)c(OC)cc23)c(C(C)=O)c1 [r173] |  |  | 83% | 100% | 
46 | COc1cc2c(Oc3cc4cccnc4nc3C)ccnc2cc1OCC(O)CO (stereo not shown) [Compound r403] |  |  | 27% | 66% | 
47 | COc1cc2nccc(Oc3cc(C)c(C(C)C)cc3C(C)=O)c2cc1OC [r183] |  |  | 82% | 100% | 
48 | COc1cc2c(Oc3ccc(C)cc3C(=O)c3ccccc3)ccnc2cc1OCCCn1ccnc1 [r140] | 85% | 100% |  |  | 
49 | COc1cc2nccc(Oc3cc4cccnc4nc3-c3csc4ccccc34)c2cc1OC [Compound 91, 2-Benzo[b]thiophen-3-yl-3-(6,7-dimethoxy-quinolin-4-yloxy)-[1,8]naphthyridine] |  |  |  |  | inhibition at 3 µM [5]: 97%; inhibition at 10 µM [6]: 100%
50 | COc1cc2nccc(Oc3cc4ccccc4cc3O)c2cc1OC [r425] |  |  | 72% | 100% | 
51 | COc1cc2nccc(Oc3ccc(C)cc3C(O)CCCCCCCCCO)c2cc1OC (stereo not shown) [r165] |  |  | 38% | 89% | 
52 | COc1cc2c(Oc3cc4cnccc4nc3C)ccnc2cc1OCCO [Compound r407] |  |  | 71% | 97% | 
53 | COc1cc2nccc(Oc3cccnc3Br)c2cc1OC [r203] |  |  | 19% | 52% | 
54 | COc1cc2ncnc(Oc3cc(C)c(C)nc3-c3ccc(C)cn3)c2cc1OC [r437] |  |  | 95% | 100% | 
55 | COc1cc2c(Oc3cc4ccccc4nc3C)ccnc2cc1OCCN(C)C [Compound r355] |  |  | 100% | 100% | 

Source: patent EP1724268A1, “COMPOUND HAVING TGF-BETA INHIBITORY ACTIVITY AND PHARMACEUTICAL COMPOSITION CONTAINING SAME” (KIRIN BEER KABUSHIKI KAISHA, priority 2004, dated 2005)
